The source of these data is patent publication US6635771B2, “N-benzhydryl indole compounds” (Wyeth, priority 2001, dated 2003).

In this test the target is T1, cPLA2 (Homo sapiens, UniProt P47712).
T1 sequence (P47712 1-749): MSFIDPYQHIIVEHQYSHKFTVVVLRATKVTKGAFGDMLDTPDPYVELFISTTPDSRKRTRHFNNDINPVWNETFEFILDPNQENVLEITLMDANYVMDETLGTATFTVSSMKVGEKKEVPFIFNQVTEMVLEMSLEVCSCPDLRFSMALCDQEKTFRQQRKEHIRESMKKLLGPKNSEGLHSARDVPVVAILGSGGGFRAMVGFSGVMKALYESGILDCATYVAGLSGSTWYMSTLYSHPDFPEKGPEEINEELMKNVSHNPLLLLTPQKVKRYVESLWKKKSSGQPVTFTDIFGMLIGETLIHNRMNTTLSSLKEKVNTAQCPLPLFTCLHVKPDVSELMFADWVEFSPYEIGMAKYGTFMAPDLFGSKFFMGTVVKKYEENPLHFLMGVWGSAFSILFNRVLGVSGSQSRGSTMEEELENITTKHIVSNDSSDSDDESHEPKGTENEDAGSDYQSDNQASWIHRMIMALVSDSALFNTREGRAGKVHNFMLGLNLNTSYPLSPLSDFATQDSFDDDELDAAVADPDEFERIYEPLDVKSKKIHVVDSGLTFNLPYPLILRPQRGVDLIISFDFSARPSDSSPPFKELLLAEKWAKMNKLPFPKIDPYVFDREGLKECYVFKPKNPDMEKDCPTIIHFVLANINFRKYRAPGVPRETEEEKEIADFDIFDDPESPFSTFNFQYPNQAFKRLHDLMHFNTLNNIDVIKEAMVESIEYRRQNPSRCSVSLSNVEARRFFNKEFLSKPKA
Kind of test: Coumarine Assay. Type of test: biochemical. The note with it: 60 μM 7-hydroxycoumarinyl 6-heptenoate substrate, 4 μg cPLA2, pH 7.5, fluorescence ex 360 nm / em 460 nm; read-out: Coumarin IC50.
Method: Inhibitors were mixed with 200 μL assay buffer (80 mM Heped, pH 7.5, 1 mM EDTA) containing 60 μM 7-hydroxycoumarinyl 6-heptenoate. The reaction was initiated by adding 4 μg cPLA2 in 50 μL assay buffer. Hydrolysis of the 7-hydroxycounarimyl 6-heptenoate ester was monitored in a fluorometer by exciting at 360 nm and monitoring emission at 460 nm. Enzyme activity is proportional to the increase in emission at 460 nm per minute. In the presence of a cPLA2 inhibitor, the rate of increase is less.
With `O=C(O)c1ccc(OCCc2c(CCNS(=O)(=O)Cc3ccc(OC(F)(F)F)cc3)n(C(c3ccccc3)c3ccccc3)c3ccc(Cl)cc23)cc1` [Example 71, 4-{2-[1-Benzhydryl-5-chloro-2-(2-{[(4-trifluorometoxybenzyl)sulfonyl]amino}ethyl)-1H-indol-3-yl]ethoxy}benzoic acid], the IC50 turned out to be 450 nM.
The same measure for `O=C(O)c1ccc(OCCc2c(CCNS(=O)(=O)Cc3c(F)cccc3[N+](=O)[O-])n(C(c3ccccc3)c3ccccc3)c3ccc(Cl)cc23)cc1` [Example 72, 4-{2-[1-Benzhydryl-5-chloro-2-(2-{[(2-fluoro-6-nitrobenzyl)sulfonyl]amino}ethyl)-1H-indol-3-yl]ethoxy)benzoic acid]: 280 nM; for `O=C(O)c1ccc(OCCc2c(CCNS(=O)(=O)Cc3c(Cl)cccc3Cl)n(C(c3ccccc3)c3ccccc3)c3ccc(Cl)cc23)cc1` [Example 73, 4-{2-[1-Benzhydryl-5-chloro-2-(2-{[(2-dichlorobenzyl)sulfonyl]amino}ethyl)-1H-indol-3-yl]ethoxy}benzoic acid]: 300 nM; for `O=C(O)c1ccc(OCCc2c(CCNS(=O)(=O)Cc3c(F)cccc3F)n(C(c3ccccc3)c3ccccc3)c3ccc(Cl)cc23)cc1` [Example 74]: 280 nM.
The same measure for `O=C(O)c1ccc(OCCc2c(CCNS(=O)(=O)Cc3ccc(Cl)nc3)n(C(c3ccccc3)c3ccccc3)c3ccc(Cl)cc23)cc1` [Example 75, 4-(2-{1-benzhydryl-5-chloro-2-[2-({[(6-chloro-3-pyridinyl)methyl]sulfonyl}amino)ethyl]-1H-indol-3-yl}ethoxy)benzoic acid]: 400 nM; for `O=C(O)c1ccc(OCCc2c(CCNS(=O)(=O)Cc3ccc(Cl)c(Cl)n3)n(C(c3ccccc3)c3ccccc3)c3ccc(Cl)cc23)cc1` [Example 76]: 400 nM; for `COc1cccc(CS(=O)(=O)NCCc2c(CCOc3ccc(C(=O)O)cc3)c3cc(Cl)ccc3n2C(c2ccccc2)c2ccccc2)c1` [Example 77, 4-{2-[1-Benzhydryl-5chloro-2-(2-{[(3-methoxybenzyl)sulfonyl]amino}ethyl)-1H-indol-3-yl]ethoxy}benzoic acid]: 480 nM.
The same measure for `Cc1cc(C)cc(CS(=O)(=O)NCCc2c(CCOc3ccc(C(=O)O)cc3)c3cc(Cl)ccc3n2C(c2ccccc2)c2ccccc2)c1` [Example 78, 4-{2-[1-Benzhydryl-5-chloro-2-(2-{[(3,5-dimethylbenzyl)sulfonyl]amino}ethyl)-1H-indol-3-yl]ethoxy)benzoic acid]: 340 nM; for `Cc1ccccc1CS(=O)(=O)NCCc1c(CCOc2ccc(C(=O)O)cc2)c2cc(Cl)ccc2n1C(c1ccccc1)c1ccccc1` [Example 79, 4-{2-[1-Benzhydryl-5-chloro-2-(2-{[(2-methylbenzyl)sulfonyl]amino}ethyl)-1H-indol3-yl]ethoxy}benzoic acid]: 150 nM.
`O=C(O)c1ccc(OCCc2c(CCNS(=O)(=O)Cc3c(Cl)cccc3Cl)n(C(c3ccccc3)c3ccccc3)c3ccc(Cl)cc23)cc1` [Example 80, 4-{2-[1-Benzhydryl-5-chloro-2-(2-{[(2,6-dichlorobenzyl)sulfonyl]amino}ethyl)-1H-indol-3-yl]ethoxy}benzoic acid]: the IC50 amounted to 3700 nM.
The same measure for `O=C(O)c1ccc(OCCc2c(CCNS(=O)(=O)CSc3ccccc3)n(C(c3ccccc3)c3ccccc3)c3ccc(Cl)cc23)cc1` [Example 81, 4-(2-{1-benzhydryl-5-chloro-2-[2-({[(phenylsulfanyl)methyl]sulfonyl}amino)ethyl]-1H-indol-3-yl}ethoxy)benzoic acid]: 470 nM.
`Cc1cccc(C)c1SCS(=O)(=O)NCCc1c(CCOc2ccc(C(=O)O)cc2)c2cc(Cl)ccc2n1C(c1ccccc1)c1ccccc1` [Example 82]: the IC50 came out at 500 nM.
In the case of `COc1ccccc1SCS(=O)(=O)NCCc1c(CCOc2ccc(C(=O)O)cc2)c2cc(Cl)ccc2n1C(c1ccccc1)c1ccccc1` [Example 83] it was 450 nM; in that of `Cc1cccc(Cl)c1SCS(=O)(=O)NCCc1c(CCOc2ccc(C(=O)O)cc2)c2cc(Cl)ccc2n1C(c1ccccc1)c1ccccc1` [Example 84], 500 nM.
Turning to `O=C(O)c1ccc(OCCc2c(CCNS(=O)(=O)CSc3cc(Cl)cc(Cl)c3)n(C(c3ccccc3)c3ccccc3)c3ccc(Cl)cc23)cc1` [Example 85], the IC50 amounted to 400 nM.
The same measure for `COc1ccc(SCS(=O)(=O)NCCc2c(CCOc3ccc(C(=O)O)cc3)c3cc(Cl)ccc3n2C(c2ccccc2)c2ccccc2)cc1OC` [Example 86]: 600 nM; for `O=C(O)c1ccc(OCCc2c(CCNS(=O)(=O)CCN3CCOCC3)n(C(c3ccccc3)c3ccccc3)c3ccc(Cl)cc23)cc1` [Example 87, 4-(2-{1-Benzhydryl-5-chloro-2-[2-(2-morpholin-4-ylethanesulfonylamino)-ethyl]-1H-indol-3-yl}-ethoxy)-benzoic acid]: 1200 nM.
Turning to `O=C(O)c1ccc(OCCc2c(CCNS(=O)(=O)CCNc3ccccc3)n(C(c3ccccc3)c3ccccc3)c3ccc(Cl)cc23)cc1` [Example 89, 4-(2-{1-Benzhydryl-5-chloro-2-[2-(2-phenylamino-ethanesulfonylamino)-ethyl]-1H-indol-3-yl}-ethoxy)-benzoic acid], the IC50 worked out at 380 nM.
In the case of `O=C(O)c1ccc(OCCc2c(CCNS(=O)(=O)CCN3CCC4(CC3)OCCO4)n(C(c3ccccc3)c3ccccc3)c3ccc(Cl)cc23)cc1` [Example 90, 4-(2-{1-benzhydryl-5-chloro-2-[2-({[2-(1,4-dioxa-8-azaspiro[4.5]dec-8-yl)ethyl]sulfonyl}amino)ethyl]-1H-indol-3-yl}ethoxy)benzoic acid] it was 650 nM; in that of `O=C(O)c1ccc(OCCc2c(CCNS(=O)(=O)CCN3CCN(c4ccccn4)CC3)n(C(c3ccccc3)c3ccccc3)c3ccc(Cl)cc23)cc1` [Example 91, 4-[2-(1-benzhydryl-5-chloro-2-{2-[({2-[4-(2-pyridinyl)-1-piperazinyl]ethyl}sulfonyl)amino]ethyl}-1H-indol-3-yl)ethoxy]benzoic acid], 500 nM.
For `Cc1cc(C)n(CCS(=O)(=O)NCCc2c(CCOc3ccc(C(=O)O)cc3)c3cc(Cl)ccc3n2C(c2ccccc2)c2ccccc2)n1` [Example 93, 4-(2-{1-benzhydryl-5-chloro-2-[2-({[2-(3,5-dimethyl-1H-pyrazol-1-yl)ethyl]sulfonyl}amino)ethyl]-1H-indol-3-yl}ethoxy)benzoic acid], the IC50 worked out at 560 nM.
For `Cc1ccn(CCS(=O)(=O)NCCc2c(CCOc3ccc(C(=O)O)cc3)c3cc(Cl)ccc3n2C(c2ccccc2)c2ccccc2)n1` [Example 94, 4-(2-{1-benzhydryl-5-chloro-2-[2-({[2-(3-methyl-1H-pyrazol-1-yl)ethyl]sulfonyl}amino)ethyl]-1H-indol-3-yl}ethoxy)benzoic acid], the IC50 came out at 800 nM.
The same measure for `Cc1cnn(CCS(=O)(=O)NCCc2c(CCOc3ccc(C(=O)O)cc3)c3cc(Cl)ccc3n2C(c2ccccc2)c2ccccc2)c1` [Example 95, 4-(2-{1-benzhydryl-5-chloro-2-[2-({[2-(4-methyl-1H-pyrazol-1-yl)ethyl]sulfonyl}amino)ethyl]-1H-indol-3-yl}ethoxy)benzoic acid]: 850 nM.

The term IC50 denotes the concentration at which inhibition is half-maximal.
